Values quoted from earlier work as cited in patent US20050065132A1, “2-alkylidene-19-nor-vitamin D derivatives for the treatment or prevention of a secon hip fracture” (Pfizer Inc, priority 2003, published 2005).
Like-named read-outs stand apart in the source and are kept apart here.

Legend:
[1] = system: serum calcium (bone calcium mobilization); conditions: given for 7 days in a chronic mode, 130 and 260 pmol/day
[2] = system: intestinal calcium transport
[3] = 130 or 260 pmol dose, chronic 7 days

Structure (SMILES)	bone calcium mobilization [1]	change in intestinal calcium transport [2, 3]	change in intestinal calcium transport ([2]; 260 pmol/day, only dose tested)
C=C1[C@H](O)CC(=C/C=C2\CCC[C@]3(C)[C@@H]([C@@H](C)CCCC(C)(C)O)CC[C@@H]23)C[C@H]1O [2-Methylene-19-Nor-20S-1,25-(OH)2D3, (20S)-1α,25-dihydroxy-2-methylene-19-nor-vitamin D3]	most potent compound tested	no significant change	–
C=C1[C@H](O)CC(=C/C=C2\CCC[C@]3(C)[C@@H]([C@H](C)CCCC(C)(C)O)CC[C@@H]23)C[C@H]1O [2-Methylene-19-Nor-1,25-(OH)2D3, 1α,25-dihydroxy-2-methylene-19-nor-vitamin D3]	extremely strong	no intestinal calcium transport activity	–
C=C1/C(=C\C=C2/CCC[C@]3(C)[C@@H]([C@H](C)CCCC(C)(C)O)CC[C@@H]23)C[C@@H](O)C[C@@H]1O [1,25-(OH)2D3, 1,25-dihydroxyvitamin D3, reference compound]	–	–	expected elevation
